Test [1] concerns the target T1, Glucocorticoid receptor (Homo sapiens) (UniProt P04150).
T1 sequence (whole entry): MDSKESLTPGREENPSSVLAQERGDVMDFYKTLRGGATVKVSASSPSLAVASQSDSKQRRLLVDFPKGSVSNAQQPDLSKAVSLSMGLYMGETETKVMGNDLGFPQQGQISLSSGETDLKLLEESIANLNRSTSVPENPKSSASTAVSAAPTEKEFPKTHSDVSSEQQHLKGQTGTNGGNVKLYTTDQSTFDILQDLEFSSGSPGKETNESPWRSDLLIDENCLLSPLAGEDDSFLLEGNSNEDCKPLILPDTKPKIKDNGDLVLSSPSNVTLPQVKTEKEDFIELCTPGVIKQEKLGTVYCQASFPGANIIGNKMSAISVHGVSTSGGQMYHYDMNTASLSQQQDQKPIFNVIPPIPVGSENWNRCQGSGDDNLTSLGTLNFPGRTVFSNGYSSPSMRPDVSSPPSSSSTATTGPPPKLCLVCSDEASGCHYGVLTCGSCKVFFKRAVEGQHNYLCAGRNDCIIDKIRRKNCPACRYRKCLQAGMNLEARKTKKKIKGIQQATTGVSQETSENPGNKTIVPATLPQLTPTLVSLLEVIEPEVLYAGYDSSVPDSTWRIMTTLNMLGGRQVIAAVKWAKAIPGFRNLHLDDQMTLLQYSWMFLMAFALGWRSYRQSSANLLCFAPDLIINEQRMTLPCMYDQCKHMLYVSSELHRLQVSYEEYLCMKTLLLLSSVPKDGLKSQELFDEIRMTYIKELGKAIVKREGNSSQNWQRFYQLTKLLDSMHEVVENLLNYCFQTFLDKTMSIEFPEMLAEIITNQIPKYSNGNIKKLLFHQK
The note with it: MDA-kb2.

In test [2] the target is T2, Androgen receptor (Homo sapiens) (UniProt P10275).
T2 sequence (whole entry): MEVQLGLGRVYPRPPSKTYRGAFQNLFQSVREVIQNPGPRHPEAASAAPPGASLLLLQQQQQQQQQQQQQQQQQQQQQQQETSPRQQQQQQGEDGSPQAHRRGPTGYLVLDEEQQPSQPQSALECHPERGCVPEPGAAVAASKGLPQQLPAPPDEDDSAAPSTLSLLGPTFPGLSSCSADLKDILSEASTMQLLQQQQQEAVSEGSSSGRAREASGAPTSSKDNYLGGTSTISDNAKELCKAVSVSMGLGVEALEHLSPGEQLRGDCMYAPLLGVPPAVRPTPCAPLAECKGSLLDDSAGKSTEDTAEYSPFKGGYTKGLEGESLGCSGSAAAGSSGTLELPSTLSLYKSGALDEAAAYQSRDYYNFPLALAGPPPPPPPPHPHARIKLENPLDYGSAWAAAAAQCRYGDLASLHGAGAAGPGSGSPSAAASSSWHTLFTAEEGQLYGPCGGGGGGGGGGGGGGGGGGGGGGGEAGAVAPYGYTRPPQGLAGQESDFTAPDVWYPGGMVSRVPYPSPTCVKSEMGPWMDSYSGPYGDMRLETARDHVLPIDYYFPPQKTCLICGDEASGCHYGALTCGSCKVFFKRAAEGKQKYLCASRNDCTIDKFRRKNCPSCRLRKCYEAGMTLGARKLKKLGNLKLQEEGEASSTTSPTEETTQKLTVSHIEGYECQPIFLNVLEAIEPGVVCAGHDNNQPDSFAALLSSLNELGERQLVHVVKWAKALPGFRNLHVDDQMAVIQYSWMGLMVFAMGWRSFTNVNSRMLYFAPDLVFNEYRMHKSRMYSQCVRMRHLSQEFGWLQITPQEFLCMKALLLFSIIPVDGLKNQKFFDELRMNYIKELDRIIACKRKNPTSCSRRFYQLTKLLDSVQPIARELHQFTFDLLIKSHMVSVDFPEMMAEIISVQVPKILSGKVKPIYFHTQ
The note with it: MDA-kb2.
Description: Agonist activity at androgen receptor in human MDA-kb2 cells assessed as stimulation of luciferase activity by luciferase reporter gene assay

Test [3] addresses T3, Androgen receptor (Homo sapiens, UniProt P10275).
T3 sequence (P10275 whole entry): T2 sequence (whole entry)
Description: Antagonist activity at androgen receptor in human MDA-kb2 cells assessed as inhibition of DHT-induced luciferase activity at 100 uM by luciferase reporter gene assay. It counts as functional, cell-based. In general terms: A reporter such as luciferase makes a cellular process visible.

For test [4], the target named is T1, Glucocorticoid receptor (Homo sapiens). Description: Agonist activity at glucocorticoid receptor in human MDA-kb2 cells assessed as stimulation of luciferase activity at 0.03 mM by luciferase reporter gene assay in presence of androgen receptor agonist DHT. The test is classed as functional, cell-based.
Test [5] has the same target. Description: Agonist activity at glucocorticoid receptor in human MDA-kb2 cells assessed as stimulation of luciferase activity by luciferase reporter gene assay in presence of glucocorticoid receptor agonist Dex. It counts as functional, cell-based.
In test [6] the target is T3, Androgen receptor. The test is described as follows: Antagonist activity at androgen receptor in human MDA-kb2 cells assessed as inhibition of DHT-induced luciferase activity by luciferase reporter gene assay.
In test [7] the target is T1, Glucocorticoid receptor (Homo sapiens). The note with it: MDA-kb2. The source holds these as a separate data set.
Description: Agonist activity at glucocorticoid receptor in human MDA-kb2 cells assessed as stimulation of luciferase activity at 100 uM by luciferase reporter gene assay
Test [8] has as its target T2, Androgen receptor (Homo sapiens). Particulars: MDA-kb2. This is another data set of the same source.
Description: Agonist activity at androgen receptor in human MDA-kb2 cells assessed as stimulation of luciferase activity at 100 uM by luciferase reporter gene assay
For test [9] the target is unchanged. Description: Ratio of compound EC150 to DHT EC150 for androgen receptor in human MDA-kb2 cells. It counts as cell-based.
For test [10] the target is unchanged. Description: Ratio of compound EC150 to Dex EC150 for androgen receptor in human MDA-kb2 cells. The test is classed as cell-based.
Test [11] concerns the target T1, Glucocorticoid receptor (Homo sapiens). The test is described as follows: Ratio of compound EC150 to Dex EC150 for glucocorticoid receptor in human MDA-kb2 cells. The test is classed as cell-based.
For test [12] the target is unchanged. Description: Ratio of compound EC150 to DHT EC150 glucocorticoid receptor in human MDA-kb2 cells. The test is classed as cell-based.
Test [13] has the same target. The test is described as follows: Agonist activity at glucocorticoid receptor in human MDA-kb2 cells assessed as stimulation of luciferase activity by luciferase reporter gene assay in presence of androgen receptor agonist DHT. It counts as functional, cell-based.

Calls of active or inactive are those of the source.

With `O=c1cc(-c2ccccc2)oc2ccc(O)cc12` [6-HYDROXYFLAVONE], the EC150 in [1] came out at 7.1 µM; in test [2] it was 7.1 µM; in test [5], 4.1 µM. For the same compound, the “AR antagonist activity at 100 uM (active/inactive)” value on Androgen receptor [3] is reported as “Not Active”. Besides, the outcome in [4] was inactive.
In the case of `COc1cccc2oc(-c3ccccc3)cc(=O)c12`, the EC150 in [1] and in [2] was 5.5 µM throughout. Besides, at Androgen receptor [6], the IC50 was 8.7 µM.
`COc1ccc(-c2cc(=O)c3c(O)cc(O)cc3o2)cc1`: the EC150 in test [1] and in test [2] was 2.1 µM in each case.
Consider `O=c1c(O)c(-c2ccccc2)oc2ccccc12` [FLAVONOL], for which the IC50 on Androgen receptor [6] came out at 23.5 µM. The EC150 result in test [7] and in test [8] was “inactive” throughout.
Regarding `O=c1c(-c2ccc(O)cc2)coc2cc(O)ccc12` [DAIDZEIN], the EC150 in [1] and in test [2] was 10.1 µM throughout. In addition, the “AR antagonist activity at 100 uM (active/inactive)” value on Androgen receptor [3] is listed as “Not Active”.
As to `COc1cc(O)c2c(=O)c(-c3ccc(O)cc3)coc2c1` [PRUNETIN], the EC150 in test [1] and in test [2] was 3.2 µM in each case. The “AR antagonist activity at 100 uM (active/inactive)” value at Androgen receptor [3] is on record as “Not Active”.
As for `COc1ccc2c(c1)OC(c1ccccc1)CC2=O` (stereo not drawn), the EC150 entry in test [7] and in [8] was “inactive” in each case.
Compound `C[C@]12CCC(=O)C[C@@H]1CC[C@@H]1[C@@H]2CC[C@]2(C)[C@@H](O)CC[C@@H]12` registered an EC150 in [1] of 0.0005 µM.
`COc1ccc2c(c1)C(=O)CC(c1ccccc1)O2` (stereo not drawn) returned an EC150 in test [1] of 4.08 µM. Besides, on Androgen receptor [6], the IC50 was determined as 39.5 µM.
`O=c1c(O)c(-c2ccccc2)oc2ccc(O)cc12` came in with an EC150 in test [1] of 1.54 µM. Moreover, the result in [5] was Active.
As for `COc1ccc2oc(-c3ccccc3)c(O)c(=O)c2c1`, the EC150 in test [1] and in [2] was 10.3 µM each time.
Take `Cc1ccc2oc(-c3ccccc3)cc(=O)c2c1`: the EC150 in test [1] and in test [2] was 3.6 µM in each case.
As for `COc1ccc2oc(-c3ccccc3)cc(=O)c2c1`, the EC150 in test [1] and in test [2] was 0.7 µM throughout. Also, the Ratio in [9] was determined as 1400; in test [10], 3.6; in test [11], 3.6; in [12] it was 1400.
With `O=c1c(O)c(-c2ccccc2)oc2cc(O)cc(O)c12`, the EC150 in test [1] and in test [2] was 633 µM in each case.
Consider `O=c1cc(-c2ccccc2)oc2ccc(Cl)cc12`, for which the EC150 in test [1] and in test [2] was 12.6 µM in each case.
For the compound `O=C1CC(c2ccccc2)Oc2ccc(O)cc21` (stereo not drawn), on Androgen receptor [6], the half-inhibitory concentration (IC50) is 3.3 µM. The EC150 entry in test [7] and in test [8] was “inactive” in each case.
For `O=c1cc(-c2ccccc2)oc2ccccc12` [FLAVONE], the EC150 in test [1] and in test [2] was 26.1 µM throughout. For the same compound, the IC50 at Androgen receptor [6] and at Androgen receptor [6] (mda-kb2) was 5.9 µM in each case.
As for `O=c1c(O)c(-c2ccc(O)c(O)c2)oc2cc(O)ccc12`, the EC150 entry in test [7] and in test [8] was “inactive” in each case.
On to `O=c1cc(-c2ccccc2)oc2cc(O)cc(O)c12` [CHRYSIN], for which the EC150 in [1] and in test [2] was 1.5 µM each time. Besides, the “AR antagonist activity at 100 uM (active/inactive)” value at Androgen receptor [3] is given as “Active”. Also, the outcome in test [13] was Active.
As for `O=c1cc(-c2ccccc2)oc2cccc(O)c12`, the EC150 in test [1] and in test [2] was 6 µM each time.
As for `O=c1cc(-c2ccccc2)oc2cc(O)c(O)c(O)c12`, the EC150 in test [1] and in test [2] was 18.9 µM throughout. Moreover, the outcome in test [5] was Active.
As for `O=c1c(-c2ccc(O)cc2)coc2cc(O)cc(O)c12` [GENISTEIN], the EC150 in test [1] and in test [2] was 4.4 µM throughout. The concentration for half-maximal inhibition (IC50) at Androgen receptor [6] stood at 1300 µM. Also, the Ratio was determined as 10000 in test [9], 23 in test [10], 23 in [11] and 10000 in [12].
Consider `O=C1C[C@@H](c2ccc(O)cc2)Oc2cc(O)cc(O)c21`, for which the EC150 result in test [7] and in test [8] was “inactive” in each case.
Consider `O=C1c2ccc(O)cc2OC(c2ccc(O)c(O)c2)C1O` (stereo not drawn), for which the EC150 entry in [7] and in [8] was “inactive” throughout.
For `O=C1CC(c2ccccc2)Oc2ccccc21` (stereo not drawn) [FLAVANONE], the EC150 in [1] and in test [2] was 380 µM each time. The half-inhibitory concentration (IC50) on Androgen receptor [6] turned out to be 20 µM.
For `O=c1cc(-c2ccccc2)oc2cc(O)ccc12`, the EC150 in [1] and in test [2] was 3.1 µM each time.
Turning to `COc1ccc2c(=O)cc(-c3ccccc3)oc2c1`, the EC150 in [1] and in test [2] was 21.9 µM each time.
On to `O=c1cc(-c2ccc(O)c(O)c2)oc2cc(O)cc(O)c12`, for which the EC150 in test [1] and in test [2] was 18 µM each time.

For orientation: IC50 means the concentration that gives 50% inhibition.

Source of the values: ChEMBL document CHEMBL1153076, “Effect of flavonoids on androgen and glucocorticoid receptors based on in vitro reporter gene assay” (Bioorg Med Chem Lett, 2009).
